How the values were obtained:
BMSCs [1] = assay: Osteogenic differentiation of BMSCs (alizarin red); settings: 14 days; for osteogenic potential of BMSCs relative to vehicle, with fulvestrant: 1 μM + 100 nM fulvestrant; for osteogenic potential of BMSCs relative to vehicle, with fulvestrant / osteogenic potential of BMSCs relative to vehicle, inhibitor study, without fulvestrant: FIG. 12; for cytotoxicity of BMSCs by bright field microscopy, compared to vehicle / osteogenic differentiation (calcium deposition), fold relative to vehicle-treated BMSCs: estrogen 10 nM, others 1 μM; for osteogenic differentiation (calcium deposition), fold relative to vehicle-treated BMSCs: n=6 donors
[2] = system: Human bone marrow derived mesenchymal stem cells (MSCs); assay: Osteogenic differentiation of MSCs (Alizarin Red calcium deposition); settings: for osteogenic differentiation of MSCs, fold relative to vehicle treated MSCs: daidzein 1 μM, genistein 1 μM, Alizarin Red; for osteogenic activity (structure-activity summary, in words): donor MSCs; for osteogenic activity (structure-activity summary, in words) / osteogenesis averaged over all three donors, relative to vehicle treated MSCs: 1 μM; for IC50: read-out: IC50 averaged among the three donors, mean of three donors
ASCs = assay: Osteogenic differentiation of ASCs (alizarin red); settings: 14 days; for osteogenic potential of ASCs relative to vehicle, with fulvestrant: 1 μM + 100 nM fulvestrant; for osteogenic potential of ASCs relative to vehicle, with fulvestrant / osteogenic potential of ASCs relative to vehicle, inhibitor study, without fulvestrant: FIG. 12; for cytotoxicity of ASCs by bright field microscopy, compared to vehicle / osteogenic differentiation (calcium deposition), fold relative to vehicle-treated ASCs: estrogen 10 nM, others 1 μM; for osteogenic differentiation (calcium deposition), fold relative to vehicle-treated ASCs: n=6 donors
BMSCs [3] = system: BMSCs
[4] = system: MSCs (Sp7, ALP, OP, IGF1 transcripts); assay: qRT-PCR of osteogenic transcription factors in MSCs; format: cell-based, human; settings: pooled MSCs, 1 μM, 14 days
Description: . […] The following primer set sequence for was used: Sp7 forward 5′-CCAGTGTCTACACCTCTC-3′ (SEQ ID NO: 1), reverse 5′-ATGGAGTAGGAGTGTTGC-3′ (SEQ ID NO: 2); IGF-1 forward 5′-CTGTGATCTAAGGAGGCTG-3′ (SEQ ID NO: 3), reverse 5′-[…]-3′ (SEQ ID NO: 4); ALP forward 5′-[…]-3′ (SEQ ID NO: 5), reverse 5′-[…]-3′ (SEQ ID NO: 6); osteopontin forward 5′-[…]-3′ (SEQ ID NO: 7), reverse 5′-[…]-3′ (SEQ ID NO: 8). β-actin forward 5′-[…]-3′ (SEQ ID NO: 9), reverse 3′-[…]-5′ (SEQ ID NO: 10) was used as an internal reference point. At the completion of the reaction, ΔΔCt was calculated to quantify mRNA expression.

[5] = Donor 1, estrogen 10 nM, 14 days
[6] = Donor 2, estrogen 10 nM, 14 days
[7] = Donor 3, estrogen 10 nM, 14 days
[8] = screen, MSCs from one donor (Donor 1), analogs and daidzein 1 μM, estrogen 10 nM, 14 days

| melting point | Structure (SMILES) | osteogenic potential of BMSCs relative to vehicle, with fulvestrant (BMSCs [1]) | osteogenic potential of BMSCs relative to vehicle, inhibitor study, without fulvestrant (BMSCs [1]; 1 μM) | osteogenic differentiation (calcium deposition), fold relative to vehicle-treated BMSCs (BMSCs [1]) | induction category of osteogenic differentiation (no, low, high induction) [2, 8] | osteogenic potential of ASCs relative to vehicle, with fulvestrant (ASCs) | osteogenic potential of ASCs relative to vehicle, inhibitor study, without fulvestrant (ASCs; 1 μM) | osteogenic differentiation (calcium deposition), fold relative to vehicle-treated ASCs (ASCs) | osteogenic activity (structure-activity summary, in words) ([2]; 14 days) | osteogenesis averaged over all three donors, relative to vehicle treated MSCs ([2]; 14 days) | also measured |
| --- | --- | --- | --- | --- | --- | --- | --- | --- | --- | --- | --- |
|  | O=c1c(-c2ccc(O)cc2)coc2cc(O)ccc12 [daidzein, Daidzein] | 1.0 fold | 1.7 fold | 1.5 fold | low inducers | 1.0 fold | 1.5 fold | 1.7 fold |  |  | cytotoxicity of BMSCs by bright field microscopy, compared to vehicle (BMSCs [1]): did not demonstrate enhanced cytotoxicity; osteogenic differentiation of MSCs, fold relative to vehicle treated MSCs [2, 5]: 1.7±0.19 fold; osteogenic differentiation of MSCs, fold relative to vehicle treated MSCs [2, 6]: 1.7±0.01 fold; osteogenic differentiation of MSCs, fold relative to vehicle treated MSCs [2, 7]: 1.6±0.15 fold; osteogenic differentiation relative to vehicle treated MSCs in ODM [2, 8]: 1.7±0.3 fold; cytotoxicity of ASCs by bright field microscopy, compared to vehicle (ASCs): did not demonstrate enhanced cytotoxicity |
|  | C=CCOc1ccc2c(=O)c(-c3ccc(O)cc3)coc2c1 [2l, 7-(Allyloxy)-3-(4-hydroxyphenyl)-4H-chromen-4-one] | 1.5 fold | 2.0 fold | 1.9 fold | high inducers | 1.7 fold | 2.4 fold | 2.2 fold | marked enhancement | 2.0±0.18 | cytotoxicity at higher dosages (BMSCs [3]): nor lead to cytotoxicity; differentiation at day 7 [2]: enhanced differentiation at day 7; IC50 ([2]; 14 days): 138 nM |
| 228 to 230 °C | C#CCOc1ccc2c(=O)c(-c3ccc(O)cc3)coc2c1 [compound 6, 3-(4-Hydroxyphenyl)-7-(prop-2-yn-1-yloxy)-4H-chromen-4-one] |  |  |  |  |  |  |  | only modest osteogenic potential |  |  |
| 228 to 230 °C | CC1(C)C=Cc2c(ccc3c(=O)c(-c4ccc(B5OC(C)(C)C(C)(C)O5)cc4)coc23)O1 [compound 8, 8,8-dimethyl-3-(4-(4,4,5,5-tetramethyl-1,3,2-dioxaborolan-2-yl)phenyl)pyrano[2,3-f]chromen-4(8H)-one] |  |  |  |  |  |  |  |  |  |  |
|  | O=c1c(-c2ccc(O)cc2)coc2cc(OC3CCCC3)ccc12 [2g, 7-Cyclopentyloxy-3-(4-hydroxyphenyl)-4H-chromen-4-one] | 0.8 fold | 1.9 fold | 1.6 fold |  | 0.9 fold | 2.0 fold | 2.0 fold | modest osteogenic activity | 2.0±0.64 | cytotoxicity at higher dosages (BMSCs [3]): nor lead to cytotoxicity |
| 262 to 264 °C | CC1(C)C=Cc2c(ccc3c(=O)c(-c4ccc(O)cc4)coc23)O1 [compound 3, 3-(4-Hydroxyphenyl)-8,8-dimethyl-8H-pyrano[2,3f]-chromen-4-one] |  |  |  |  |  |  |  | did not exhibit any osteogenic activity |  |  |
|  | O=c1c(-c2ccc(O)cc2)coc2cc(O)cc(O)c12 [genistein, reference compound] |  |  | 1.4 fold |  |  |  | 1.4 fold |  |  | BMSC donors that did not respond to treatment (BMSCs [1]; 6 donors, 1 μM): 2 of the 6; cytotoxicity of BMSCs by bright field microscopy, compared to vehicle (BMSCs [1]): did not demonstrate enhanced cytotoxicity; osteogenic differentiation of MSCs, fold relative to vehicle treated MSCs [2, 5]: 1.6±0.19 fold; osteogenic differentiation of MSCs, fold relative to vehicle treated MSCs [2, 6]: 1.7±0.02 fold; osteogenic differentiation of MSCs, fold relative to vehicle treated MSCs [2, 7]: 1.0±0.15 fold; ASC donors that did not respond to treatment (ASCs; 6 donors, 1 μM): 3 of the 6; cytotoxicity of ASCs by bright field microscopy, compared to vehicle (ASCs): did not demonstrate enhanced cytotoxicity |
| 176 to 180 °C | CC1(C)CCc2c(ccc3c2OCC(c2ccc(O)cc2)C3=O)O1 (stereo not shown) [compound 4, 3-(4-Hydroxyphenyl)-8,8-dimethyl-2,3,9,10-tetrahydropyrano[2,3-f]chromen-4(8H)-one] |  |  |  |  |  |  |  | modest potential |  |  |
|  | CCCCCCOc1ccc2c(=O)c(-c3ccc(O)cc3)coc2c1 [2h, 7-Hexyloxy-3-(4-hydroxyphenyl)-4H-chromen-4-one] |  |  |  | high inducers |  |  |  | marked enhancement | 2.0±0.48 |  |
|  | CC(C)Oc1ccc2c(=O)c(-c3ccc(O)cc3)coc2c1 [2c, 3-(4-Hydroxyphenyl)-7-isopropoxy-4H-chromen-4-one] |  |  | 1.6 fold | high inducers |  |  | 1.7 fold | marked enhancement | 2.0±0.41 | differentiation at day 7 [2]: enhanced differentiation at day 7; IC50 ([2]; 14 days): 58.2 nM; ALP expression relative to cells treated with vehicle in ODM [4]: 2.45±0.80; IGF1 expression relative to cells treated with vehicle in ODM [4]: 26.96±9.19; OP expression relative to cells treated with vehicle in ODM [4]: 2.68±0.11; Sp7 expression relative to cells treated with vehicle in ODM [4]: 20.08±4.81 |
